# Laboratory results from article PMC6269660, “Anti-Inflammatory Cycloartane-Type Saponins of Astragalus membranaceus” (Molecules, 2013).
# Assays:
# Type in all cases: cell-based
# [1] = system: LPS-induced NO production in RAW 264.7 macrophage cells; assay: Inhibition of LPS-induced NO production (nitrite, Griess reagent); details: for inhibition of NO production (in words): LPS-induced RAW264.7 macrophages
# Protocol: Previous studies have already reported on the anti-inflammatory effects of components obtained from A. membranaceus. Thus, we also investigated the inhibitory effects of compounds 1–5 on NO production by using the Griess reaction to measure nitrite, a soluble oxidation product of NO, in the culture medium of LPS-induced RAW 264.7 macrophages.
# (§1) Assays for NO production and cell viability were carried out as previously described. Briefly, RAW 264.7 macrophages were harvested and seeded in 24-well plates (3 × 10^5 cells/well) for the measurement of NO production. The plates were pretreated with various concentrations of samples for 1 h and incubated with LPS (1 μg/mL) for 7 h. The amount of NO was determined by the nitrite concentration in the cultured RAW264.7 macrophage supernatants using the Griess reagent. The cell viability was evaluated by MTT reduction.
# [2] = Cell viability by MTT reduction; details: mouse, at a concentration of 100 μM, RAW 264.7 cells, MTT reduction, mean ± SD of three independent experiments
# Protocol: as §1
# RAW 264.7 macrophages = assay: Cell viability by MTT reduction; details: RAW 264.7 cells treated with compounds
# Protocol: as §1
SMILES,"IC50 ([1]; Mus musculus, RAW264.7, LPS-activated RAW 264.7 cells, pretreated 1 h with compounds, then LPS (1 μg/mL) for 7 h, mean ± SD of three independent experiments) [nM]","viability at 8 h, 100 µM [2] [%]",inhibition of NO production (in words) [1],"viability at 8 h, 100 µM ([2]; RAW 264.7 macrophages) [%]",cell toxicity / influence on cell viability (in words) (RAW 264.7 macrophages)
"O=C(O)/C=C/c1ccc(O)c(O)c1 [Caffeic acid, reference compound]",830 ± 1150,82.2 ± 1.64,–,–,–
"CC(=O)OC1C(OC2CCC34CC35CCC3(C)C(C(C)CCC(O)C(C)(C)O)CCC3(C)C5CC(OC3OC(CO)C(O)C(O)C3O)C4C2(C)C)OCC(O)C1O [Compound 1, 3-O-β-(2'-O-acetyl)-D-xylopyranosyl-6-O-β-D-glucopyranosyl-(24S)-3β,6α,24α,25-tetrahydroxy-9,19-cyclolanostane]",–,–,significant inhibition of NO production,93.2 ± 6.96,without cytotoxicity
"CC(=O)OC1C(O)COC(OC2CCC34CC35CCC3(C)C(C(C)CCC(O)C(C)(C)O)C(O)CC3(C)C5CC(OC3OC(CO)C(O)C(O)C3O)C4C2(C)C)C1OC(C)=O (centres unmarked) [Compound 2, agroastragaloside I]",–,–,–,54.5 ± 1.21,Some cell toxicity was observed
"CC(=O)OC1C(OC2CCC34CC35CCC3(C)C(C(C)CCC(O)C(C)(C)O)C(O)CC3(C)C5CC(OC3OC(CO)C(O)C(O)C3O)C4C2(C)C)OCC(O)C1O (centres unmarked) [Compound 3, agroastragaloside II]",–,–,–,47.6 ± 3.4,Some cell toxicity was observed
"CC(=O)O[C@@H]1[C@@H](O)[C@H](O[C@H]2CC[C@]34C[C@]35CC[C@]3(C)[C@@H]([C@@]6(C)CC[C@@H](C(C)(C)O)O6)[C@@H](O)C[C@@]3(C)[C@@H]5C[C@H](O[C@@H]3O[C@H](CO)[C@@H](O)[C@H](O)[C@H]3O)[C@H]4C2(C)C)OC[C@H]1O [Compound 4, isoastragaloside II]",–,–,–,69 ± 1.82,Some cell toxicity was observed
"CC(C)(O)[C@@H]1CC[C@](C)([C@H]2[C@@H](O)C[C@@]3(C)[C@@H]4C[C@H](O[C@@H]5O[C@H](CO)[C@@H](O)[C@H](O)[C@H]5O)[C@H]5C(C)(C)[C@@H](O[C@@H]6OC[C@@H](O)[C@H](O)[C@H]6O)CC[C@@]56C[C@@]46CC[C@]23C)O1 [Compound 5, astragaloside IV]",–,94.4 ± 4.33,significant inhibition of NO production,–,without cytotoxicity
